{"source": "the supplement of paper PMC10883282", "system": "RD", "assay": "relative viability vs DMSO control (72 h) (fraction); higher = more viable cells", "summary_of_the_method": "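Sarcoma cell lines were grown in 384-well plates seeded toward 80–90% confluence and exposed 24 h later to serially diluted compound. After 72 h at 37 °C and 5% CO2, with 0.1% DMSO vehicle and a 5 µM positive control on the plates, ATPLite was read. Relative viability, given as percent growth averaged over up to triplicate wells, was rescaled so that 1 is full and 0 is none.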", "note": "± gives the standard deviation of the averaged measurements."}
{"smiles": "COc1cc2c(cc1O)CCN[C@]21CS[C@@H]2c3c(OC(C)=O)c(C)c4c(c3[C@H](COC1=O)N1[C@@H]2[C@H]2c3c(cc(C)c(OC)c3O)C[C@@H]([C@@H]1O)N2C)OCO4", "note": "[Trabectedin]", "values": [{"measurement": "relative viability", "setting": "2 pM", "value": "1.08 ± 0.055"}, {"measurement": "relative viability", "setting": "5 pM", "value": "1.08 ± 0.068"}, {"measurement": "relative viability", "setting": "15 pM", "value": "1.08 ± 0.048"}, {"measurement": "relative viability", "setting": "50 pM", "value": "1 ± 0.045"}, {"measurement": "relative viability", "setting": "0.00014 µM", "value": "0.678 ± 0.022"}, {"measurement": "relative viability", "setting": "0.00041 µM", "value": "0.166 ± 0.14"}, {"measurement": "relative viability", "setting": "0.0012 µM", "value": "0.158 ± 0.0037"}, {"measurement": "relative viability", "setting": "0.0037 µM", "value": "0.128 ± 0.0033"}, {"measurement": "relative viability", "setting": "0.011 µM", "value": "0.104 ± 0.01"}, {"measurement": "relative viability", "setting": "200 fM", "value": "1.1 ± 0.043"}, {"measurement": "relative viability", "setting": "600 fM", "value": "1.08 ± 0.015"}]}
{"smiles": "Nc1cc(C(F)(F)F)c(-c2cc(N3CCOCC3)nc(N3CCOCC3)n2)cn1", "note": "[Buparlisib]", "values": [{"measurement": "relative viability", "setting": "0.00017 µM", "value": "1.09 ± 0.015"}, {"measurement": "relative viability", "setting": "0.00051 µM", "value": "1.06 ± 0.025"}, {"measurement": "relative viability", "setting": "0.00152 µM", "value": "1.09 ± 0.055"}, {"measurement": "relative viability", "setting": "0.00457 µM", "value": "1.08 ± 0.05"}, {"measurement": "relative viability", "setting": "0.01372 µM", "value": "1.07 ± 0.028"}, {"measurement": "relative viability", "setting": "0.04115 µM", "value": "1.09 ± 0.045"}, {"measurement": "relative viability", "setting": "0.1235 µM", "value": "1 ± 0.046"}, {"measurement": "relative viability", "setting": "0.3704 µM", "value": "0.868 ± 0.045"}, {"measurement": "relative viability", "setting": "1.111 µM", "value": "0.428 ± 0.042"}, {"measurement": "relative viability", "setting": "3.333 µM", "value": "0.133 ± 0.011"}, {"measurement": "relative viability", "setting": "10 µM", "value": "0.126 ± 0.015"}]}
{"smiles": "CC(C)NC(=O)C1CCC(n2c(NC(=O)c3ccc(F)cc3)nc3ccc(CN4CCC(C(C)(C)O)CC4)cc32)CC1", "note": "(centres undefined) [Belizatinib]", "values": [{"measurement": "relative viability", "setting": "0.00017 µM", "value": "1.1 ± 0.05"}, {"measurement": "relative viability", "setting": "0.00051 µM", "value": "1.09 ± 0.06"}, {"measurement": "relative viability", "setting": "0.00152 µM", "value": "1.08 ± 0.079"}, {"measurement": "relative viability", "setting": "0.00457 µM", "value": "1.09 ± 0.02"}, {"measurement": "relative viability", "setting": "0.01372 µM", "value": "1.09 ± 0.041"}, {"measurement": "relative viability", "setting": "0.04115 µM", "value": "1.09 ± 0.025"}, {"measurement": "relative viability", "setting": "0.1235 µM", "value": "1 ± 0.014"}, {"measurement": "relative viability", "setting": "0.3704 µM", "value": "0.844 ± 0.058"}, {"measurement": "relative viability", "setting": "1.111 µM", "value": "0.456 ± 0.027"}, {"measurement": "relative viability", "setting": "3.333 µM", "value": "0.268 ± 0.0066"}, {"measurement": "relative viability", "setting": "10 µM", "value": "0.122 ± 0.011"}]}
{"smiles": "N#CC[C@H](C1CCCC1)n1cc(-c2ncnc3[nH]ccc23)cn1", "note": "[Ruxolitinib]", "values": [{"measurement": "relative viability", "setting": "0.00017 µM", "value": "0.965 ± 0.052"}, {"measurement": "relative viability", "setting": "0.00051 µM", "value": "0.972 ± 0.049"}, {"measurement": "relative viability", "setting": "0.00152 µM", "value": "0.965 ± 0.041"}, {"measurement": "relative viability", "setting": "0.00457 µM", "value": "0.977 ± 0.059"}, {"measurement": "relative viability", "setting": "0.01372 µM", "value": "0.97 ± 0.034"}, {"measurement": "relative viability", "setting": "0.04115 µM", "value": "0.979 ± 0.044"}, {"measurement": "relative viability", "setting": "0.1235 µM", "value": "0.973 ± 0.051"}, {"measurement": "relative viability", "setting": "0.3704 µM", "value": "0.965 ± 0.058"}, {"measurement": "relative viability", "setting": "1.111 µM", "value": "0.976 ± 0.056"}, {"measurement": "relative viability", "setting": "3.333 µM", "value": "0.976 ± 0.092"}, {"measurement": "relative viability", "setting": "10 µM", "value": "0.895 ± 0.055"}]}
